In patent publication US20240287172A1, “PROTEIN BINDERS TO IRHOM2 EPITOPES” (SCIRHOM GMBH, priority 2019, published 2024):

System: LPS-induced release of endogenous TNFα from human macrophages from healthy donors
Assay: ELISA-based TNFα release assay, LPS-induced, human macrophages from healthy donors
Format: cell-based
Settings: Macrophage, LPS 5 ng/ml, 2 hours, recombinant murine antibodies at 10 μg/ml, Batimastat at 10 μM
Method: To obtain human macrophages, peripheral blood mononuclear cells (PBMCs) from 4 healthy donors were used. Cells from 5 ml human blood were resuspended in 20 ml of DMEM medium (Corning, USA) supplemented with 10% FCS (Atlanta Biological, USA) and Penicillin/Streptomycin (Corning, USA) (DMEM/FCS) and were then incubated on two 10 cm petri dishes (Thermo Fisher, USA) at 37° C., 5% CO2 for 3h. Non-adherent cells were subsequently removed and 6 ml of DMEM/FCS supplemented with 10 ng/ml human MCSF (Peprotech, USA) (DMEM/FCS/MCSF) was added per plate. Both plates were incubated at 37° C., 5% CO2 for 2 days, then 2 ml of DMEM/FCS/MCSF was added to each plate on day 2 and 4. On day 5, all medium was removed and attached cells were washed once with 5 ml PBS (Corning, USA). 2 ml of Accutase (Promocell, USA) solution was added to each plate and incubated at 37° C. for 15 min. 10 ml of DMEM/FCS was added to each plate and detached cells were collected in a 15 ml Falcon tube. Cells were subsequently pelleted in a tabletop centrifuge (Eppendorf, USA) at 1,500 rpm for 5 min. The medium was removed and the cells were resuspended in 2 ml of DMEM/FCS. 10 μl from this cell suspension was manually counted in a hemocytometer (Thermo Fisher, USA). […]

CNC(=O)[C@H](Cc1ccccc1)NC(=O)[C@H](CC(C)C)[C@H](CSc1cccs1)C(=O)NO [Batimastat]
inhibition at 10 µM: 68.3%
